# *1 amine or outer side, *2 acyl side, *3 side chain or, on linkers, in order; H or OH if unused. Where a SMILES comes first, the peptide text is derived from it. Bridges are numbered along the chain shown (N, C = ends). [ ]: non-standard residue; d: D form. The star is where a group is joined. ξ: configuration not given here. Bip(3'-COOH) = N[C@@H](Cc1ccc(-c2cccc(C(=O)O)c2)cc1)C(=O)O; Phe(4-NO2) = N[C@@H](Cc1ccc([N+](=O)[O-])cc1)C(=O)O; Phe(3-COOH) = N[C@@H](Cc1cccc(C(=O)O)c1)C(=O)O; Phe(4-CONH2) = NC(=O)c1ccc(C[C@H](N)C(=O)O)cc1; Phe(4-COOH) = N[C@@H](Cc1ccc(C(=O)O)cc1)C(=O)O; Bip = N[C@@H](Cc1ccc(-c2ccccc2)cc1)C(=O)O; Phe(3-Me) = Cc1cccc(C[C@H](N)C(=O)O)c1; Ethylenediamine = C(CN[*:2])N[*:1]; Val(3-OH) = CC(C)(O)[C@H](N)C(=O)O; 4Pal = N[C@@H](Cc1ccncc1)C(=O)O; 3Thi = N[C@@H](Cc1ccsc1)C(=O)O; Cha = N[C@@H](CC1CCCCC1)C(=O)O; Cit = NC(=O)NCCC[C@H](N)C(=O)O; Ile(3ξ) = CCC(C)[C@H](N)C(=O)O; Thr(3ξ) = CC(O)[C@H](N)C(=O)O; Ala(CN) = N#CC[C@H](N)C(=O)O; Carboxymethyl = O=C(O)C*; Nle = CCCC[C@H](N)C(=O)O; Orn = NCCC[C@H](N)C(=O)O; Pra = C#CC[C@H](N)C(=O)O; Dab = NCC[C@H](N)C(=O)O; Nva = CCC[C@H](N)C(=O)O; Dap = NC[C@H](N)C(=O)O; Bn = c1ccc(C*)cc1
# Molecular target: T1, human PD-1 / PD-L1-Ig binding on Jurkat cell line over-expressing human PD-1 (Jurkat-PD-1) (Homo sapiens, UniProt Q15116)
# T1 construct: expressed in transfected cells; host or cells: Jurkat
# Experiment: Jurkat-PD-1 Cell Binding High-Content Screening Assay (CBA)
# Assay type: cell-based
# Settings: Jurkat HPD1_PDL1 IC50, Jurkat-PD-1 cells, PE-labeled PD-L1-Ig 20 nM final
# How it was run: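 Jurkat-hPD-1 cells in DMEM with 10% fetal calf serum receive test compound and are held at 37° C for 2 h. PE-labeled PD-L1-Ig is added at 20 nM final and left for 1 hour. Cells are then fixed and Hoechst-stained, and binding is measured by imaging.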
# T1 sequence (Q15116 25-288): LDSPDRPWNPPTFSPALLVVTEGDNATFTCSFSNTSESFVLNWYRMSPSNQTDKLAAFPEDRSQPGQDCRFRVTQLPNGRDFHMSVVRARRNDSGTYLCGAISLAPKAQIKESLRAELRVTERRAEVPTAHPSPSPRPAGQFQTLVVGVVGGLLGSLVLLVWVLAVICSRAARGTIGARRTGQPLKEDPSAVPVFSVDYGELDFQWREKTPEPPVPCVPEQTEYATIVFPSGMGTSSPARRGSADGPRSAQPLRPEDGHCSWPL
row,Structure (SMILES),IC50 [nM]
1,CC(C)C[C@H]1NC(=O)[C@H](CCCN)NC(=O)[C@H](C(C)C)NC(=O)[C@H](Cc2ccc(-c3ccccc3)cc2)NC(=O)[C@H](C(C)C)NC(=O)[C@H](Cc2c[nH]c3ccccc23)NC(=O)[C@H](CC(=O)O)NC(=O)[C@H](Cc2ccc(OCC(=O)O)cc2)NC(=O)[C@H](CN)NC(=O)CSC[C@@H](C(=O)N[C@@H](C)C(N)=O)NC(=O)[C@H]([C@@H](C)O)NC(=O)[C@H](Cc2ccc(OCc3ccccc3)cc2)NC(=O)[C@H](CC2CCCCC2)NC(=O)[C@H](CCN)NC1=O [Compound 1532] ({CH2CO}-[Dap]Y(Carboxymethyl)DWV[Bip]V[Orn][dL][Dab][Cha]Y(Bn)TCA-NH2; thioether N-14),111

# Same assay, conditions: Jurkat-PD-1 cells, PE-labeled PD-L1-Ig 20 nM final; read-out: Jurkat HPD1_PDL1 IC50
row,IC50 [nM],Structure (SMILES)
1,3.7,Cc1cccc(C[C@@H]2NC(=O)[C@H](CC(=O)O)NC(=O)[C@H](Cc3ccc(OCC(=O)O)cc3)NC(=O)[C@H](Cc3ccsc3)NC(=O)CSC[C@@H](C(=O)N[C@@H](CCN)C(N)=O)NC(=O)[C@H](CO)NC(=O)[C@H](C(C)(C)O)NC(=O)[C@H](CC3CCCCC3)NC(=O)[C@H](CCN)NC(=O)[C@@H](CC(C)C)NC(=O)[C@H](CCCN)NC(=O)[C@H](Cc3ccc(OCC(=O)O)cc3)NC(=O)[C@H](Cc3ccc(-c4ccccc4)cc3)NC(=O)[C@H](Cc3ccc(OCC(=O)O)cc3)NC2=O)c1 [Compound 2615] ({CH2CO}-[3Thi]Y(Carboxymethyl)D[Phe(3-Me)]Y(Carboxymethyl)[Bip]Y(Carboxymethyl)[Orn][dL][Dab][Cha][Val(3-OH)]SC[Dab]-NH2; thioether N-14)
2,33.5,CCC(C)[C@@H]1NC(=O)[C@H](Cc2ccc(-c3ccccc3)cc2)NC(=O)[C@H](C(C)C)NC(=O)[C@H](Cc2cccc(C)c2)NC(=O)[C@H](CC(=O)O)NC(=O)[C@H](Cc2ccc(C(=O)O)cc2)NC(=O)[C@H](Cc2ccncc2)NC(=O)CSC[C@@H](C(N)=O)NC(=O)[C@H]([C@@H](C)O)NC(=O)[C@H](C(C)C)NC(=O)[C@H](CC2CCCCC2)NC(=O)[C@H](CCN)NC(=O)[C@@H](CC(C)C)NC(=O)[C@H](CCCN)NC1=O (stereo partly drawn) [Compound 2275] ({CH2CO}-[4Pal][Phe(4-COOH)]D[Phe(3-Me)]V[Bip][Ile(3ξ)][Orn][dL][Dab][Cha]VTC-NH2; thioether N-14)
3,15.2,Cc1cccc(C[C@@H]2NC(=O)[C@H](CC(=O)O)NC(=O)[C@H](Cc3ccc(OCC(=O)O)cc3)NC(=O)[C@H](C(C)O)NC(=O)CSC[C@@H](C(=O)N[C@@H](CN)C(=O)NCCN)NC(=O)[C@H](C(C)O)NC(=O)[C@H](C(C)(C)O)NC(=O)[C@H](CC3CCCCC3)NC(=O)[C@H](CCN)NC(=O)[C@@H](CC(C)C)NC(=O)[C@H](CCCN)NC(=O)[C@H](Cc3ccc(O)cc3)NC(=O)[C@H](Cc3ccc(-c4ccccc4)cc3)NC(=O)[C@H](Cc3ccc(C(N)=O)cc3)NC2=O)c1 (stereo partly drawn) [Compound 2664] ({CH2CO}-[Thr(3ξ)]Y(Carboxymethyl)D[Phe(3-Me)][Phe(4-CONH2)][Bip]Y[Orn][dL][Dab][Cha][Val(3-OH)][Thr(3ξ)]C[Dap]-Ethylenediamine; thioether N-14)
4,18.2,CC(C)C[C@H]1NC(=O)[C@H](CCCN)NC(=O)[C@H](CCCNC(N)=O)NC(=O)[C@H](Cc2ccc(-c3ccccc3)cc2)NC(=O)[C@H](C(C)C)NC(=O)[C@H](Cc2c[nH]c3ccccc23)NC(=O)[C@H](CC(=O)O)NC(=O)[C@H](Cc2ccc([N+](=O)[O-])cc2)NC(=O)[C@H](CN)NC(=O)CSC[C@@H](C(=O)N[C@@H](C)C(N)=O)NC(=O)[C@H]([C@@H](C)O)NC(=O)[C@H](C(C)C)NC(=O)[C@H](CC2CCCCC2)NC(=O)[C@H](CCN)NC1=O [Compound 2110] ({CH2CO}-[Dap][Phe(4-NO2)]DWV[Bip][Cit][Orn][dL][Dab][Cha]VTCA-NH2; thioether N-14)
5,182,CCC(C)[C@@H]1NC(=O)[C@H](Cc2ccc(-c3ccccc3)cc2)NC(=O)[C@H](C(C)C)NC(=O)[C@H](Cc2cccc(C)c2)NC(=O)[C@H](CC(=O)O)NC(=O)[C@H](Cc2ccc(-c3cccc(C(=O)O)c3)cc2)NC(=O)[C@H](Cc2ccc(OCC(=O)O)cc2)NC(=O)CSC[C@@H](C(=O)N[C@@H](C)C(N)=O)NC(=O)[C@H]([C@@H](C)O)NC(=O)[C@H](C(C)C)NC(=O)[C@H](CC2CCCCC2)NC(=O)[C@H](CCN)NC(=O)[C@@H](CC(C)C)NC(=O)[C@H](CCCN)NC1=O (some centres unmarked) [Compound 2225]
6,412,C#CC[C@H](NC(=O)[C@@H]1CSCC(=O)N[C@@H](CCC)C(=O)N[C@@H](Cc2ccc(OCC(=O)O)cc2)C(=O)N[C@@H](CC(=O)O)C(=O)N[C@@H](Cc2cccc(C)c2)C(=O)N[C@@H](Cc2ccc(OCC(=O)O)cc2)C(=O)N[C@@H](Cc2ccc(-c3ccccc3)cc2)C(=O)N[C@@H](Cc2ccc(OCC(=O)O)cc2)C(=O)N[C@@H](CCCC)C(=O)N[C@H](CC(C)C)C(=O)N[C@@H](CCN)C(=O)N[C@@H](CC2CCCCC2)C(=O)N[C@@H](C(C)C)C(=O)N[C@@H](CCC(=O)O)C(=O)N1)C(=O)O [Compound 2703] ({CH2CO}-[Nva]Y(Carboxymethyl)D[Phe(3-Me)]Y(Carboxymethyl)[Bip]Y(Carboxymethyl)[Nle][dL][Dab][Cha]VEC[Pra]-OH; thioether N-14)

# The remaining lines, values behind:
row,Structure (SMILES),IC50 [nM]
1,COc1ccc(C[C@@H]2NC(=O)[C@H](CCN)NC(=O)[C@@H](CC(C)C)NC(=O)[C@H](CCCN)NC(=O)[C@H](CCCNC(N)=O)NC(=O)[C@H](Cc3ccc(-c4ccccc4)cc3)NC(=O)[C@H](C(C)C)NC(=O)[C@H](Cc3c[nH]c4ccccc34)NC(=O)[C@H](CC(=O)O)NC(=O)[C@H](Cc3ccc(OCC(=O)O)cc3)NC(=O)[C@H](CN)NC(=O)CSC[C@@H](C(=O)N[C@@H](C)C(N)=O)NC(=O)[C@H]([C@@H](C)O)NC(=O)[C@H](C(C)C)NC2=O)cc1 [Compound 1351] ({CH2CO}-[Dap]Y(Carboxymethyl)DWV[Bip][Cit][Orn][dL][Dab]Y(Me)VTCA-NH2; thioether N-14),121
2,CCCC[C@H]1NC(=O)[C@H](CCCN)NC(=O)[C@H](CCCNC(N)=O)NC(=O)[C@H](Cc2ccc(-c3ccccc3)cc2)NC(=O)[C@H](C(C)C)NC(=O)[C@H](Cc2c[nH]c3ccccc23)NC(=O)[C@H](CC(=O)O)NC(=O)[C@H](Cc2ccncc2)NC(=O)[C@H](CN)NC(=O)CSC[C@@H](C(=O)N[C@@H](C)C(N)=O)NC(=O)[C@H]([C@@H](C)O)NC(=O)[C@H](C(C)C)NC(=O)[C@H](CC2CCCCC2)NC(=O)[C@H](CCN)NC1=O [Compound 1703],25.1
3,CC(C)C[C@@H]1NC(=O)[C@H](Cc2c[nH]c3ccccc23)NC(=O)[C@H](CC(=O)O)NC(=O)[C@H](Cc2ccc(C(=O)O)cc2)NC(=O)[C@H](Cc2cccc(C(=O)O)c2)NC(=O)CSC[C@@H](C(=O)NCC(N)=O)NC(=O)[C@H](CO)NC(=O)[C@H](C(C)C)NC(=O)[C@H](CC2CCCCC2)NC(=O)[C@H](CCN)NC(=O)[C@@H](CC(C)C)NC(=O)[C@H](CCCN)NC(=O)[C@H](C(C)C)NC(=O)[C@H](Cc2ccc(-c3ccccc3)cc2)NC1=O [Compound 2014] ({CH2CO}-[Phe(3-COOH)][Phe(4-COOH)]DWL[Bip]V[Orn][dL][Dab][Cha]VSCG-NH2; thioether N-14),17.2
4,CC[C@H](C)[C@@H]1NC(=O)[C@H](Cc2ccc(-c3ccccc3)cc2)NC(=O)[C@H](C(C)C)NC(=O)[C@H](Cc2c[nH]c3ccccc23)NC(=O)[C@H](CC(=O)O)NC(=O)[C@H](Cc2ccc(O)cc2)NC(=O)[C@H](Cc2ccncc2)NC(=O)CSC[C@@H](C(=O)N[C@@H](C)C(N)=O)NC(=O)[C@H]([C@@H](C)O)NC(=O)[C@H](C(C)C)NC(=O)[C@H](CC(C)C)NC(=O)[C@H](CCN)NC(=O)[C@@H](CC(C)C)NC(=O)[C@H](CCCN)NC1=O [Compound 1053] ({CH2CO}-[4Pal]YDWV[Bip]I[Orn][dL][Dab]LVTCA-NH2; thioether N-14),13.7
5,CC(C)C[C@H]1NC(=O)[C@H](CCCN)NC(=O)[C@H](CCC(=O)O)NC(=O)[C@H](Cc2ccc(-c3ccccc3)cc2)NC(=O)[C@H](C(C)C)NC(=O)[C@H](Cc2c[nH]c3ccccc23)NC(=O)[C@H](CC(=O)O)NC(=O)[C@H](Cc2ccncc2)NC(=O)[C@H](Cc2ccc(OCC(=O)O)cc2)NC(=O)CSC[C@@H](C(=O)N[C@@H](C)C(N)=O)NC(=O)[C@H]([C@@H](C)O)NC(=O)[C@H](C(C)C)NC(=O)[C@H](CC2CCCCC2)NC(=O)[C@H](CCN)NC1=O [Compound 1423],9.9
6,CC(C)C[C@H]1NC(=O)[C@H](CCCN)NC(=O)[C@H](CCCNC(N)=O)NC(=O)[C@H](Cc2ccc(-c3ccccc3)cc2)NC(=O)[C@H](C(C)C)NC(=O)[C@H](Cc2c[nH]c3ccccc23)NC(=O)[C@H](CC(=O)O)NC(=O)[C@H](Cc2ccc(-c3cccc(C(=O)O)c3)cc2)NC(=O)[C@H](CN)NC(=O)CSC[C@@H](C(=O)N[C@@H](C)C(N)=O)NC(=O)[C@H]([C@@H](C)O)NC(=O)[C@H](C(C)C)NC(=O)[C@H](CC2CCCCC2)NC(=O)[C@H](CCN)NC1=O [Compound 2090] ({CH2CO}-[Dap][Bip(3'-COOH)]DWV[Bip][Cit][Orn][dL][Dab][Cha]VTCA-NH2; thioether N-14),7.8

# Same assay, conditions: read-out: Jurkat HPD1_PDL1 IC50; Jurkat-PD-1 cells, PE-labeled PD-L1-Ig 20 nM final
row,Structure (SMILES),IC50 [nM]
1,CCC(C)[C@@H]1NC(=O)[C@H](Cc2ccc(-c3ccccc3)cc2)NC(=O)[C@H](CC#N)NC(=O)[C@H](Cc2c[nH]c3ccccc23)NC(=O)[C@H](CC(=O)O)NC(=O)[C@H](Cc2ccc(OCC(=O)O)cc2)NC(=O)[C@H](C(C)O)NC(=O)CSC[C@@H](C(=O)N[C@@H](CC(N)=O)C(=O)O)NC(=O)[C@H](CO)NC(=O)[C@H](C(C)C)NC(=O)[C@H](CC(C)C)NC(=O)[C@H](CCN)NC(=O)[C@@H](CC(C)C)NC(=O)[C@H](CCCN)NC1=O (stereo partly drawn) [Compound 2579] ({CH2CO}-[Thr(3ξ)]Y(Carboxymethyl)DW[Ala(CN)][Bip][Ile(3ξ)][Orn][dL][Dab]LVSCN-OH; thioether N-14),153

# Source: patent US20250163104A1, “MACROCYCLIC IMMUNOMODULATORS” (priority 2021, published 2025)
